Literature values as cited in US7601526B2 (priority 2004, dated 2009).

System: F. tularensis

Row | Structure (SMILES) | type of antibacterial action against F. tularensis
1 | [H]/N=C(/N)N[C@H]1[C@H](O)[C@@H](O)[C@H](O[C@@H]2O[C@@H](C)[C@](O)(C=O)[C@H]2O[C@@H]2O[C@@H](CO)[C@H](O)[C@@H](O)[C@@H]2NC)[C@@H](N/C(N)=N\[H])[C@@H]1O [Streptomycin] | bactericidal
2 | O=C(N[C@H](CO)[C@H](O)c1ccc([N+](=O)[O-])cc1)C(Cl)Cl [chloramphenicol] | bacteriostatic
